Results published in ChEMBL document CHEMBL3774331, “Inhibition of tau aggregation using a naturally-occurring cyclic peptide scaffold” (Eur J Med Chem, 2016).
Activity calls are given as the source filed them. The calls are words filed in the database; no cut-off is given here. Where a SMILES comes first, the peptide text is derived from it. Bridges are numbered along the chain shown (N, C = ends).

Test system: not listed separately
Assay: Inhibition of TAU derived synthetic hexapeptide AcPHF6 fibril formation at compound:AcPHF6 ratio of 1:1 to 1:64 incubated for 60 mins by thioflavin S fluorescence assay
With `CC[C@H](C)[C@@H]1NC(=O)[C@H](C)NC(=O)CNC(=O)[C@@H]2CCCN2C(=O)[C@@H]2CCCN2C(=O)[C@H]([C@@H](C)CC)NC(=O)[C@H](CO)NC(=O)[C@H](CCCCN)NC(=O)[C@H](Cc2ccc(O)cc2)NC(=O)[C@H](C)NC(=O)[C@H]([C@@H](C)CC)NC(=O)[C@H](CCC(N)=O)NC(=O)[C@H](C(C)C)NC(=O)CNC(=O)[C@H](CC(=O)O)NC(=O)[C@@H]2CCCN2C(=O)[C@H](C(C)C)NC(=O)[C@H](CCCCN)NC1=O` (cyclo(AIKVPDGVQIAYKSIPPG)) the inhibition was “Active”. In the case of `CC[C@H](C)[C@@H]1NC(=O)[C@@H]2CCCN2C(=O)[C@@H]2CCCN2C(=O)[C@H]([C@@H](C)CC)NC(=O)[C@H](CO)NC(=O)[C@H](C)NC(=O)[C@H]([C@@H](C)O)NC(=O)[C@@H]2CSSC[C@H](NC1=O)C(=O)N[C@@H](Cc1ccccc1)C(=O)N1CCC[C@H]1C(=O)N[C@@H](CC(=O)O)C(=O)NCC(=O)N[C@@H](CCCNC(=N)N)C(=O)N2` (cyclo(ASIPPICFPDGRCT); disulfide 7-13), the inhibition is reported as “Active”. With `CC[C@H](C)[C@@H]1NC(=O)[C@H](CCC(=O)O)NC(=O)[C@@H]2CCCN2C(=O)[C@H](Cc2cnc[nH]2)NC(=O)[C@H](CC(=O)O)NC(=O)[C@H](Cc2ccc(O)cc2)NC(=O)[C@H](CC(N)=O)NC(=O)[C@H]2CSSC[C@H](NC(=O)CN)C(=O)N[C@@H](CSSC[C@@H](C(=O)NCC(=O)NCC(=O)N[C@@H](C)C(=O)NCC(=O)NCC(=O)O)NC1=O)C(=O)N[C@H](CO)C(=O)N[C@@H](CC(=O)O)C(=O)N1CCC[C@H]1C(=O)N[C@H](CCCNC(=N)N)C(=O)N2` the inhibition was “inactive”. For `CC[C@H](C)[C@@H]1NC(=O)[C@H](CCC(N)=O)NC(=O)[C@H](C(C)C)NC(=O)CNC(=O)[C@H]2CCCN2C(=O)[C@H](C(C)C)NC(=O)[C@H](C)N(C)C(=O)[C@H]([C@@H](C)CC)NC(=O)[C@H](C)NC(=O)[C@H]([C@@H](C)CC)NC(=O)[C@@H]2CCCN2C(=O)[C@@H]2CCCN2C(=O)[C@H]([C@@H](C)CC)NC(=O)[C@H](CO)NC(=O)[C@H](CCCCN)NC(=O)[C@H](Cc2ccc(O)cc2)NC(=O)[C@H](C(C)C)NC1=O`, the inhibition was “Active”. For `CC[C@H](C)[C@@H]1NC(=O)[C@@H]2CSSC[C@H](NC(=O)[C@H]([C@@H](C)CC)NC(=O)[C@H](CCC(N)=O)NC(=O)[C@@H]3CCCN3C(=O)[C@@H]3CCCN3C(=O)[C@H](C)NC1=O)C(=O)N[C@@H](Cc1ccc(O)cc1)C(=O)N[C@@H](CCCCN)C(=O)N[C@@H](CO)C(=O)N[C@@H]([C@@H](C)CC)C(=O)N1CCC[C@H]1C(=O)N1CCC[C@H]1C(=O)NCC(=O)N2` (cyclo(APPQICYKSIPPGCI); disulfide 6-14), the inhibition was “Active”. In the case of `CC[C@H](C)[C@@H]1NC(=O)[C@@H]2CCCN2C(=O)[C@@H]2CCCN2C(=O)[C@H]([C@@H](C)CC)NC(=O)[C@H](CO)NC(=O)[C@H](Cc2ccccc2)NC(=O)[C@H](CC(N)=O)NC(=O)[C@@H]2CSSC[C@H](NC1=O)C(=O)N[C@@H](CCC(N)=O)C(=O)N[C@@H](CCCCN)C(=O)N[C@@H](CO)C(=O)N1CCC[C@H]1C(=O)N[C@@H](CC(=O)O)C(=O)NCC(=O)N[C@@H](CO)C(=O)N[C@@H](CC(N)=O)C(=O)N[C@@H](CCC(N)=O)C(=O)N2` (cyclo(CNFSIPPICQKSPDGSNQ); disulfide 1-9), the inhibition is reported as “Active”. In the case of `CC(C)C[C@H](NC(=O)CN)C(=O)N1CCC[C@H]1C(=O)N[C@H](C(=O)N[C@@H]1CSSC[C@H]2NC(=O)CNC(=O)[C@@H]3CCCN3C(=O)[C@H]([C@@H](C)O)NC(=O)[C@@H](CC(N)=O)NC(=O)[C@H]3CSSC[C@H](C(=O)N[C@@H](C(=O)N[C@H](CCCNC(=N)N)C(=O)N[C@@H](CC(N)=O)C(=O)O)[C@@H](C)O)NC(=O)[C@H](C(C)C)NC(=O)[C@H]4CCCN4C(=O)[C@@H](Cc4c[nH]c5ccccc45)NC(=O)[C@H](CO)NC(=O)[C@@H](CSSC[C@@H](NC(=O)[C@@H]([C@@H](C)O)NC(=O)[C@@H](CCC(=O)O)NC(=O)CNC1=O)C(=O)N[C@@H](C(C)C)C(=O)NCC(=O)NCC(=O)N[C@@H]([C@@H](C)O)C(=O)N3)NC(=O)[C@@H]([C@H](C)O)NC2=O)C(C)C`, the inhibition is reported as “Active”. With `CC[C@@H](C)[C@@H]1NC(=O)[C@@H]2CSSC[C@H](NC(=O)[C@@H]([C@H](C)CC)NC(=O)CNC(=O)[C@H]3CCCN3C1=O)C(=O)N[C@H](Cc1ccc(O)cc1)C(=O)N[C@H](CCCCN)C(=O)N[C@H](CO)C(=O)N[C@H]([C@H](C)CC)C(=O)N1CCC[C@H]1C(=O)N1CCC[C@H]1C(=O)NCC(=O)N2` the inhibition was “Active”. With `CC[C@H](C)[C@@H]1NC(=O)[C@H](CCC(N)=O)NC(=O)[C@H](C(C)C)NC(=O)CNC(=O)[C@H](CC(=O)O)NC(=O)[C@@H]2CCCN2C(=O)[C@H](C(C)C)NC(=O)[C@H](CCCCN)NC(=O)[C@H]([C@@H](C)CC)NC(=O)[C@@H]2CSSC[C@H](NC1=O)C(=O)N[C@@H](Cc1ccc(O)cc1)C(=O)N[C@@H](CCCCN)C(=O)N[C@@H](CO)C(=O)N[C@@H]([C@@H](C)CC)C(=O)N1CCC[C@H]1C(=O)N1CCC[C@H]1C(=O)N[C@@H]([C@@H](C)CC)C(=O)N2` (cyclo(CIKVPDGVQICYKSIPPI); disulfide 1-11) the inhibition was “Active”.

Test system: Serum
Assay: Stability in 100% human serum at 30 uM after 24 hrs
Format: ADME
With `CC[C@H](C)[C@@H]1NC(=O)[C@H](C)NC(=O)CNC(=O)[C@@H]2CCCN2C(=O)[C@@H]2CCCN2C(=O)[C@H]([C@@H](C)CC)NC(=O)[C@H](CO)NC(=O)[C@H](CCCCN)NC(=O)[C@H](Cc2ccc(O)cc2)NC(=O)[C@H](C)NC(=O)[C@H]([C@@H](C)CC)NC(=O)[C@H](CCC(N)=O)NC(=O)[C@H](C(C)C)NC(=O)CNC(=O)[C@H](CC(=O)O)NC(=O)[C@@H]2CCCN2C(=O)[C@H](C(C)C)NC(=O)[C@H](CCCCN)NC1=O` (cyclo(AIKVPDGVQIAYKSIPPG)) the Stability was “Stable”.
